Laboratory results as given in PubChem BioAssay AID1996.
In brackets after ≈: the same amount, converted by molar mass.

Conditions: buffer; pH 7.4; 200.0 µM
C/C(=N/NC(=O)CNC(=O)c1cccs1)c1ccco1 showed a solubility kinetic of over 43.7 µg/mL.
Compound Cc1ccccc1Nc1ncc(C#N)c(N)n1 has a solubility kinetic of 31.6 µg/mL (≈ 140 µM).
With CC(=O)N(C)c1ccc(N=Cc2cc3c(cc2[N+](=O)[O-])OCO3)cc1 the solubility kinetic was 44.1 µg/mL (≈ 129 µM).
Work on CC(=O)Nc1ccc(S(=O)(=O)N2CC(=O)NC(=O)C2)cc1 yielded a solubility kinetic of over 46.7 µg/mL.
Compound CCN1C(=O)CC(C(=O)OC)=C1C has a solubility kinetic of 24.6 µg/mL (≈ 134 µM).
Work on O=C(COC(=O)c1ccc(Cl)nc1)NC1CCCc2ccccc21 (stereo not given) yielded a solubility kinetic of 36.1 µg/mL (≈ 105 µM).
CCOc1nc(Nc2ccc(Cl)cc2)nc(OCC)n1 showed a solubility kinetic of 3.5 µg/mL (≈ 11.9 µM).
In the case of CCCC(C)NC(=O)c1ccccc1SC (stereo not given), the solubility kinetic is reported as 34.1 µg/mL (≈ 144 µM).
Compound CC1CCN(CC(O)Cn2c3ccccc3c3ccccc32)CC1 (stereo not given) has a solubility kinetic of 38.7 µg/mL (≈ 120 µM).
Compound O=C(NCCCn1ccnc1)/C(=C/c1ccco1)NC(=O)c1ccco1 has a solubility kinetic of over 53.2 µg/mL.
Compound CN1C(=O)/C(=C\c2ccc(N(C)C)cc2)OC1=S has a solubility kinetic of under 0.3 µg/mL.
COc1ccccc1C(=O)NCC(=O)NCCc1ccc(Cl)cc1 showed a solubility kinetic of 38.8 µg/mL (≈ 112 µM).
Cc1ccccc1C1NC(c2ccccc2C)C(C)C(=O)C1C (stereo not given) gave a solubility kinetic of 7.7 µg/mL (≈ 25 µM).
Compound CCC1NC(=O)c2ccccc2N1c1cccc(Cl)c1 (stereo not given) has a solubility kinetic of 29.8 µg/mL (≈ 104 µM).
With c1ccc2oc(-c3csc(N4CCOCC4)n3)cc2c1 the solubility kinetic was 4.7 µg/mL (≈ 16.4 µM).
For CCOC(=O)c1cc(Sc2ccccc2N)cc(C(=O)OCC)n1, the solubility kinetic was under 0.4 µg/mL.
Compound CN(C)CCCNC(=O)c1cc(C(=O)c2ccccc2F)c[nH]1 has a solubility kinetic of over 47.6 µg/mL.
N#Cc1ccc(NC(=O)C2=COCCO2)cc1 showed a solubility kinetic of over 34.5 µg/mL.
CN(C)CCOC(=O)c1ccc2[nH]c3c(c2c1)CSCC3.Cl showed a solubility kinetic of 49.2 µg/mL.
COc1ccc(NC(=O)C2CCCNC2=O)cc1 (stereo not given) gave a solubility kinetic of over 37.2 µg/mL.
Compound Cc1ccc(N=C(N)N=C(N)N)c(C)c1 has a solubility kinetic of 28.8 µg/mL (≈ 140 µM).
Compound Nc1cccnc1Oc1ccc(F)cc1 has a solubility kinetic of 28.8 µg/mL (≈ 141 µM).
Work on O=C(CCCc1nc2ccccc2s1)Nc1ccccc1 yielded a solubility kinetic of 9.9 µg/mL (≈ 33.4 µM).
Work on O=Cc1ccc(OCC(=O)N2CCOCC2)cc1 yielded a solubility kinetic of over 37.4 µg/mL.
Work on COc1ccc(-c2noc(CCC(=O)NCCc3ccccc3)n2)cc1 yielded a solubility kinetic of 5.4 µg/mL (≈ 15.4 µM).
O=C(Cc1ccc(Cl)cc1)Nc1ccc(Cl)cn1 gave a solubility kinetic of 3.1 µg/mL (≈ 11 µM).
For CCN1CSC(=S)N(Cc2ccc(OC)cc2)C1, the solubility kinetic was 38.6 µg/mL (≈ 137 µM).
For Cc1cc(C)c(C)c(S(=O)(=O)N2CCC(C(=O)OCC(=O)NC3CCS(=O)(=O)C3)CC2)c1C (stereo not given), the solubility kinetic was over 75.1 µg/mL.
With COc1ccc(C(=O)O)cc1S(=O)(=O)Nc1ccc(C)cc1 the solubility kinetic was over 48.2 µg/mL.
For Cc1cc(C)cc(NC(=O)Nc2ccc(N3CCCCC3)cc2)c1, the solubility kinetic was 0.3 µg/mL (≈ 0.928 µM).
For O=C(CNC(=O)c1ccccc1)NCc1nc2ccccc2[nH]1, the solubility kinetic was 39.4 µg/mL (≈ 128 µM).
For COC(=O)C(Cc1ccc(O)cc1)N1Cc2ccccc2C1=O (stereo not given), the solubility kinetic was over 46.7 µg/mL.
Compound FC(F)(F)c1ccccc1CNCc1ccncc1 has a solubility kinetic of 29.4 µg/mL (≈ 110 µM).
For CCc1ccc(C(=O)OCC(=O)N2CCCCCC2)cc1, the solubility kinetic was 14.5 µg/mL (≈ 50.1 µM).
Cc1cc(NC(=O)c2cc3cccc([N+](=O)[O-])c3[nH]2)ccc1F showed a solubility kinetic of 0.7 µg/mL (≈ 2.23 µM).
Work on O=C(CSc1nc2ncc(Cl)cc2[nH]1)N1CCC(Cc2ccccc2)CC1 yielded a solubility kinetic of 1 µg/mL (≈ 2.49 µM).
In the case of Cc1ccsc1C(=O)OCc1cc(=O)n2ccsc2n1, the solubility kinetic is reported as 6.3 µg/mL (≈ 20.6 µM).
In the case of CC(=O)Nc1ccc(NC(=O)CC2CCCC2)cc1, the solubility kinetic is reported as over 39.1 µg/mL.
Compound COc1ccc(NC(=O)c2coc(C)c2)cc1 has a solubility kinetic of 31.9 µg/mL (≈ 138 µM).
In the case of COCCN(C(=O)c1cc(-c2ccco2)nc2ccccc12)c1c(N)n(Cc2ccccc2)c(=O)[nH]c1=O, the solubility kinetic is reported as over 76.7 µg/mL.
In the case of COc1ccccc1C(=O)NS(=O)(=O)c1ccc(C)cc1, the solubility kinetic is reported as over 45.8 µg/mL.
In the case of CC(=O)CC(CC(=O)NC1CCCCC1)c1ccccc1 (stereo not given), the solubility kinetic is reported as over 43.1 µg/mL.
With COc1ccc2[nH]c(C(=O)NCc3ccccc3)c(C)c2c1.Cl the solubility kinetic was 2.7 µg/mL.
Compound Cc1[nH]c2ccccc2c1CC#N has a solubility kinetic of 21.3 µg/mL (≈ 125 µM).
Compound Cl.NCC(O)c1ccc(O)cc1 (stereo not given) has a solubility kinetic of over 28.4 µg/mL.
Work on O=C(COC(=O)/C=C/c1ccc(Cl)cc1Cl)NCc1ccco1 yielded a solubility kinetic of 5.9 µg/mL (≈ 16.7 µM).
Work on COC(=O)C(NC(=O)C(C)NC(=O)OCc1ccccc1)C(C)C (stereo not given) yielded a solubility kinetic of over 50.5 µg/mL.
For Cc1cccc(OC(C)C(=O)Nc2nc(-c3ccncc3)cs2)c1 (stereo not given), the solubility kinetic was 3.4 µg/mL (≈ 10 µM).
Work on Cc1ccc(Cl)cc1NS(=O)(=O)N1CCOCC1 yielded a solubility kinetic of over 43.6 µg/mL.
For COC(=O)c1cc(S(=O)(=O)N2CCCC2=O)c(Cl)cc1Cl, the solubility kinetic was over 52.8 µg/mL.
With CC(=O)NCCc1ccc(C(=O)Cn2cnc3ccccc3c2=O)cc1 the solubility kinetic was over 52.4 µg/mL.
For CCOc1cccc(C(=O)N2CCCN(C)CC2)c1, the solubility kinetic was 35.6 µg/mL (≈ 136 µM).
For CCCC#CCN1CCN(C23CC4CC(CC(C4)C2)C3)CC1, the solubility kinetic was 42.6 µg/mL (≈ 142 µM).
O=C(O/N=C/c1ccc(Cl)cc1)C1CCCCC1 gave a solubility kinetic of 2.4 µg/mL (≈ 9.03 µM).
Cc1onc(-c2ccccc2)c1CNC(=O)Nc1ccc(C(F)(F)F)cc1 gave a solubility kinetic of 0.4 µg/mL (≈ 1.07 µM).
With COc1ccc(OC)c(/C=C/C(=O)OCC(=O)N2CCCC2)c1 the solubility kinetic was over 47.9 µg/mL.
In the case of CN=C(Nc1cccnc1)c1ccccc1, the solubility kinetic is reported as over 31.7 µg/mL.
In the case of Cc1oc(S(=O)(=O)N2CCOCC2)cc1C(=O)Nc1ccc(F)cc1, the solubility kinetic is reported as 5.4 µg/mL (≈ 14.7 µM).
For O=C(NC1=NCCS1)C1CCN(S(=O)(=O)c2cc([N+](=O)[O-])ccc2Cl)CC1, the solubility kinetic was 20.8 µg/mL (≈ 48 µM).
Compound Cc1ccccc1CNC(=O)COc1ccccc1 has a solubility kinetic of over 38.3 µg/mL.
